From patent US8420852B2, “Phospholipase A2 inhibitors and their use in treating neurological injury and disease” (The Regents of the University of California, priority 2007, dated 2013)

Key:
Assay type in all cases: biochemical
[1] = biological target: T1, iPLA2 (GVIA) (Homo sapiens, UniProt O60733); assay: standard iPLA2 (GVIA) activity assay, DPPC/Triton X-100 mixed micelles; conditions: at 0.091 mol fraction
T1 sequence (O60733 1-806): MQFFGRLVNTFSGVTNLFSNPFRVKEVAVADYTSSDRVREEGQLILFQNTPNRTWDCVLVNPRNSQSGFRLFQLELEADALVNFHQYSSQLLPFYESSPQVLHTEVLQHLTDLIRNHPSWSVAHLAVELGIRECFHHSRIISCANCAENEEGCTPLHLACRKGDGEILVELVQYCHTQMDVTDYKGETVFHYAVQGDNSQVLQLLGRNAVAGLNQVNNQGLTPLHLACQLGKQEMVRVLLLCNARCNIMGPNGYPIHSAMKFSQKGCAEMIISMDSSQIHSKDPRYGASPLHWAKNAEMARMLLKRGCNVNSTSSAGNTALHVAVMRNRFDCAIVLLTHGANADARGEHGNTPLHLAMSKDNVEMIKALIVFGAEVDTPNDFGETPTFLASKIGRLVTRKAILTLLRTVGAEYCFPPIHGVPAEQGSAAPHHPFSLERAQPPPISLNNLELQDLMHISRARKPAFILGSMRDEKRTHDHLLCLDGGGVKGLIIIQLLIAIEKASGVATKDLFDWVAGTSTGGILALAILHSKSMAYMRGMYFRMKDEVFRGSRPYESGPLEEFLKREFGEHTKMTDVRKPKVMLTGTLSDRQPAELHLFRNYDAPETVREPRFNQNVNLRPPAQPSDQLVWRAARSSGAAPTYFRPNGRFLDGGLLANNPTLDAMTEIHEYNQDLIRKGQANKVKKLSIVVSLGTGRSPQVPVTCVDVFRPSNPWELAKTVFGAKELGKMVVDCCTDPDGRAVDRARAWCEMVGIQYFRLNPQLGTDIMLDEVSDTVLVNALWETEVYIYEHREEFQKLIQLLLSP
Method: The compounds described herein were tested for inhibition of PLA2s in in vitro assay systems. The data, summarized in the Examples, are represented as XI(50) values unless otherwise noted. XI(50) is defined as the inhibitor concentration that produced 50% inhibition. XI(50) is used as opposed to the more common IC50 because GIVA and GVIA PLA2 are active at a two-dimensional lipid interface rather than in three-dimensional solution. (Deems, Anal. Biochem., 287:1-16, 2000).
For the groups that received delayed treatment after symptoms occurred, mice were treated with daily intraperitoneal injections of AX059 starting from the first day of clinical symptoms, beginning on day 11; and AX115 starting from the first day of clinical peak (i.e., score 4), beginning of day 14. All inhibitors were administered for 2 weeks. The selectivity of the compounds for the different PLA2s is shown as the percentage inhibition in Table 1. The XI(50) is the mole fraction of the inhibitor in the total substrate interface required to inhibit the enzyme by 50%.
Compound AX115 was tested for its ability to inhibit human cPLA2 (GIVA) in a cPLA2 (GIVA) specific assay that uses mixed micelles of the substrate 1-palmitoyl-2-arachidonyl phosphatidylcholine and the detergent Triton X-100 (97:3) containing phosphatidylinositol 4,5-bisphosphate (400 μM) as previously described. […]

[2] = biological target: T2, sPLA2 (GV) (Homo sapiens, UniProt P39877); assay: sPLA2 inhibition assay; conditions: at 0.091 mol fraction
T2 sequence (P39877 21-138): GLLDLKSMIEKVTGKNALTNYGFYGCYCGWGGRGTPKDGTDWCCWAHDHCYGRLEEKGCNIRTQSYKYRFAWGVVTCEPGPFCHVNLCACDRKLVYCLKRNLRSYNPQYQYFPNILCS
Method: The compounds described herein were tested for inhibition of PLA2s in in vitro assay systems. The data, summarized in the Examples, are represented as XI(50) values unless otherwise noted. XI(50) is defined as the inhibitor concentration that produced 50% inhibition. XI(50) is used as opposed to the more common IC50 because GIVA and GVIA PLA2 are active at a two-dimensional lipid interface rather than in three-dimensional solution. (Deems, Anal. Biochem., 287:1-16, 2000). For the groups that received delayed treatment after symptoms occurred, mice were treated with daily intraperitoneal injections of AX059 starting from the first day of clinical symptoms, beginning on day 11; and AX115 starting from the first day of clinical peak (i.e., score 4), beginning of day 14. All inhibitors were administered for 2 weeks. The selectivity of the compounds for the different PLA2s is shown as the percentage inhibition in Table 1. The XI(50) is the mole fraction of the inhibitor in the total substrate interface required to inhibit the enzyme by 50%. PLA2 inhibitors. It has been previously reported that long chain 2-oxoamides based on gamma-amino acids are potent inhibitors of cPLA2 (GIVA). […] A 2-oxoamide based on a glycine methyl ester, AX115, inhibits sPLA2 (GV) as well as cPLA2 (GIVA) and iPLA2 (GVIA). […]

[3] = biological target: T3, GIIA PLA2 (Homo sapiens, UniProt P14555); assay: vesicle assay for GIIA PLA2
T3 sequence (P14555 21-144): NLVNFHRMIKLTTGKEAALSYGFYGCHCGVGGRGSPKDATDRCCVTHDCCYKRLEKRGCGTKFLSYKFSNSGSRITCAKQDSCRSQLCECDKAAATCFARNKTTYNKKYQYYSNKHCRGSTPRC
Source text: Vesicle assays have generally been employed for this enzyme, but they have limitations for in vitro comparison of inhibitor potency.

For `CCCCCCCCCCCCCCC(=O)C(=O)NCC(=O)OC` [AX115], the “Inhibition iPLA2GIVA” value [1] was 45%, the “Inhibition sPLA2 GIVA/GV*” value [2] was 52% and the “inhibition of GIIA compared with GV PLA2” value [3] was “comparable inhibition”.
